Assay results reported in publication PMC3108608 (Frontiers in Pharmacology, 2011).

Tests used:
[1] = system: COX-1; parameters: method as in Albert et al., 2002; Feisst et al., 2009; conditions: human platelets; ref Albert et al., 2002; Feisst et al., 2009; cited from earlier work
[2] = system: carrageenan-induced pleurisy; experiment: Carrageenan-induced pleurisy in rats; format: in vivo, rat; conditions: 4 h after carrageenan; for PGE2 in exudate: vehicle 1.81 ± 0.16; for Inflammatory cells: vehicle 103.0 ± 15.4
[3] = system: A549 cells; experiment: cells; conditions: Homo sapiens, A549, 24 h, read-out: EC50 of reduction of cell viability
[4] = system: COX-2 expression; experiment: Induction of COX-2 in IL-1β-stimulated A549 cells (Western blot); format: cell-based; conditions: Homo sapiens, 24 h, read-out: EC50 of inhibition of COX-2 induction
Procedure: (§1) Cells (4 × 10^6 cells) were resuspended in 50 μl PBS buffer pH 7.2, mixed with the same volume of 2 × SDS/PAGE sample loading buffer (20 mM Tris–HCl, pH 8, 2 mM EDTA, 5% (m v^−1) SDS, and 10% (v v^−1) β-mercaptoethanol), and boiled for 5 min at 95°C. Aliquots (20 μl) corresponding to equivalents of 0.8 × 10^6 cells were mixed with 4 μl glycerol/0.1% bromophenol blue (1:1, v v^−1), and proteins were separated by SDS-PAGE. After electroblotting to nitrocellulose membrane (GE Healthcare, Munich, Germany) and blocking with 5% BSA for 1 h at room temperature, membranes were washed and incubated with primary antibodies overnight at 4°C. The membranes were washed and incubated with a 1:1000 dilution of alkaline phosphatase-conjugated immunoglobulin G for 3 h at room temperature. After washing, proteins were visualized with nitro blue tetrazolium and 5-bromo-4-chloro-3-indolylphosphate.
(§2) Cells were harvested after 24 h, total cell lysates were prepared and analyzed for the induction of COX-2 (72 kDa), mPGES-1 (16 kDa) and cleaved PARP (89 kDa) using SDS-PAGE and Western blotting. β-Actin (45 kDa) was used as loading control. Data are representatives of two to three independent experiments.

[5] = system: carrageenan-induced mouse paw edema; experiment: Carrageenan-induced paw edema in mice; format: in vivo; conditions: for ED50 paw edema formation: i.p., areas under the curves 2-6 h
Procedure: Mice were divided into groups (n = 10 for each group) and lightly anesthetized with enflurane 4% mixed with O2, 0.5 l min^−1, N2O 0.5 l min^−1. Each group of animals received subplantar administration of saline (0.05 ml) or of λ-carrageenan type IV 1% (w v^−1, 0.05 ml) in saline. The paw was marked in order to immerge it always at the same extent in the measurement chamber. The volume was measured by using a hydroplethismometer, specially modified for small volumes (Ugo Basile, Milan, Italy), immediately before subplantar injection and 2, 4, and 6 h thereafter (Posadas et al., [2004]). The assessment of paw volume was performed always in double blind and by the same operator. The increase in paw volume was calculated by subtracting the initial paw volume (basal) to the paw volume measured at each time point.

[6] = system: COX-2; parameters: method as in Albert et al., 2002; Feisst et al., 2009; conditions: monocytic Mono Mac 6 cells; ref Albert et al., 2002; Feisst et al., 2009; read-out: COX-2 activity (6-keto PGF1α synthesis), not affected up to; cited from earlier work
[7] = target: 5-lipoxygenase (5-LO); parameters: method as in Albert et al., 2002; Feisst et al., 2009; conditions: neutrophils; ref Albert et al., 2002; Feisst et al., 2009; read-out: IC50 of leukotriene biosynthesis; cited from earlier work
[8] = system: A549 lung carcinoma cells; experiment: Apoptosis of A549 cells monitored by cleavage of PARP; format: cell-based; conditions: Homo sapiens, A549, 24 h
Procedure: as §1, §2

[9] = system: mPGES-1 expression; experiment: Induction of mPGES-1 in IL-1β-stimulated A549 cells (Western blot); format: cell-based; conditions: Homo sapiens, 24 h, read-out: EC50 of inhibition of mPGES-1 induction
Procedure: as §1, §2

[10] = system: PGE2 formation in LPS-stimulated human whole blood; experiment: PGE2 formation in LPS-stimulated human whole blood; format: cell-based; conditions: controls: MK-886 30 μM, MD-52 6 μM, indomethacin 50 μM, celecoxib 20 μM; LPS 5 h
[11] = system: 6-keto PGF1α formation in LPS-stimulated human whole blood; experiment: 6-keto PGF1α formation in LPS-stimulated human whole blood; format: cell-based; conditions: MK-886 30 μM, MD-52 6 μM; LPS 5 h
[12] = system: TXB2 formation in LPS-stimulated human whole blood; experiment: TXB2 formation in LPS-stimulated human whole blood; format: cell-based; conditions: MK-886 30 μM, MD-52 6 μM; LPS 5 h
[13] = target: T1, mPGES-1 (Homo sapiens, UniProt O14684); experiment: PGE2 synthase activity in microsomes of IL-1β-stimulated A549 cells; format: biochemical; conditions: for IC50: 15 min pre-incubation at 4°C, 20 μM PGH2, 1 min, read-out: IC50 of PGE2 formation (mPGES-1 activity)
T1 construct: microsomal preparations of IL-1β-stimulated A549 cells, a rich source of mPGES-1; endogenous in cells; host or cells: A549 cells, IL-1β-stimulated, microsomal fraction
T1 sequence (O14684 1-152): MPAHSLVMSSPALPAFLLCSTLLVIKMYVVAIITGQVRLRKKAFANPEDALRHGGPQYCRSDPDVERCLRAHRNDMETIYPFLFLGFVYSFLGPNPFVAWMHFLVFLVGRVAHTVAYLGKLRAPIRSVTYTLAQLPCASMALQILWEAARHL

[14] = system: 12-HHT formation (mainly derived from platelet COX-1) in human whole blood; experiment: 12-HHT formation in human whole blood (A23187 plus AA); format: cell-based; conditions: indomethacin 20 μM, aspirin 30 μM
[15] = Hyp 4 mg kg^−1 i.p., indomethacin 5 mg kg^−1
[16] = i.p. 30 min before, Hyperforin 4 mg kg^−1, Indomethacin 5 mg kg^−1

With `CC(C)=CCCC1(C)C(CC=C(C)C)CC2(CC=C(C)C)C(=O)C1(C(=O)C(C)C)C(=O)C(CC=C(C)C)=C2O` (centres unmarked) [Hyp, Hyperforin] as the compound, how does the IC50 [1] read?
Its IC50 is 3000 nM.

What about the “attenuation of exudate formation” value [2, 15] of the same compound?
The value was 64%.

And the PGE2 in exudate [2, 16]?
Its PGE2 in exudate is 0.97 ± 0.15 ng/rat.

What about the Inflammatory cells [2, 16] of the same compound?
The Inflammatory cells was 51.3 ± 7.2 ×10^6.

What about the EC50 [3] of the same compound?
The EC50 was about 3000 nM.

What about the EC50 [4] of the same compound?
Its EC50 is 1000 to 3000 nM.

And the “inhibition of edema formation from areas under the curves (2-6 h)” value (“inhibition of edema formation from areas” for short) ([5]; 0.25 mg kg^−1 i.p.)?
The value was 27 % of control.

And the “reduction of peak paw edema response at 4 h” value (shortened to “reduction”) ([5]; 0.25 mg kg^−1 i.p. 30 min before carrageenan)?
The value was 35%.

What about the “inhibition of edema formation from areas” value ([5]; 1 mg kg^−1 i.p.) of the same compound?
The value was 49 % of control.

What about the “reduction” value ([5]; 1 mg kg^−1 i.p. 30 min before carrageenan) of the same compound?
The value was 63%.

What about the “inhibition of edema formation from areas” value ([5]; 4 mg kg^−1 i.p.) of the same compound?
The value was 76 % of control.

What about the “reduction” value ([5]; 4 mg kg^−1 i.p. 30 min before carrageenan) of the same compound?
The value was 78%.

What about the “ED50 paw edema formation” value [5] of the same compound?
The value was 1 mg/kg.

What about the IC50 [6] of the same compound?
Its IC50 is over 30 µM.

And the IC50 [7]?
Its IC50 is 1000 to 2000 nM.

What about the EC50 [8] of the same compound?
Its EC50 is about 3000 nM.

What about the EC50 [9] of the same compound?
The EC50 was 1000 to 3000 nM.

With `Clc1ccccc1-c1nc2c3ccccc3c3ccccc3c2[nH]1` [MD-52, 2-(2-chlorophenyl)-1H-phenanthro[9,10-d]-imidazole] as the compound, how does the “effect on PGE2 formation” value [10] read?
The value was “only partially inhibited”.

And the “effect on 6-keto PGF1α formation” value [11]?
Its value is “failed to suppress”.

And the “effect on TXB2 formation” value [12]?
The value was “failed to suppress”.

With `CC(C)c1ccc2c(c1)c(SC(C)(C)C)c(CC(C)(C)C(=O)O)n2Cc1ccc(Cl)cc1` [MK-886] as the compound, how does the “effect on PGE2 formation” value [10] read?
The value was “only partially inhibited”.

And the “effect on 6-keto PGF1α formation” value [11]?
The value was “failed to suppress”.

What about the “effect on TXB2 formation” value [12] of the same compound?
Its value is “failed to suppress”.

Which IC50 [13] does the source give for `Cc1c(O)cc(O)c(C(=O)C(C)C)c1O` [acylphloroglucinol core] here?
Its IC50 is over 10 µM.

For `CC(=O)Oc1ccccc1C(=O)O` [aspirin], which “effect on 12-HHT formation” value [14] is on record?
Its value is “almost completely blocked”.

For `Cc1ccc(-c2cc(C(F)(F)F)nn2-c2ccc(S(N)(=O)=O)cc2)cc1` [celecoxib], which “effect on PGE2 formation” value [10] is on record?
Its value is “effectively reduced”.

With `CC(C)=CCC1C(=O)C(C(=O)CC(C)C)=C(O)C(O)(CC=C(C)C)C1=O` (centres unmarked) [humulone] as the compound, how does the IC50 [13] read?
Its IC50 is over 10 µM.

What does the source list for `COc1ccc2c(c1)c(CC(=O)O)c(C)n2C(=O)c1ccc(Cl)cc1` [indomethacin]?
attenuation of cell infiltration [2, 15]: 65%; attenuation of exudate formation [2, 15]: 75%; Exudate volume ([2]; i.p. 30 min before, Hyperforin 4 mg kg^−1, Indomethacin 5 mg kg^−1, vehicle 0.44 ± 0.04): 0.11 ± 0.04 mL; PGE2 in exudate [2, 16]: 0.19 ± 0.05 ng/rat; Inflammatory cells [2, 16]: 35.8 ± 4.2 ×10^6; effect on PGE2 formation [10]: effectively reduced; inhibition of edema formation from areas under the curves (2-6 h) ([5]; 5 mg kg^−1 i.p.): 52 % of control; reduction of peak paw edema response at 4 h ([5]; 5 mg kg^−1 i.p. 30 min before carrageenan): 57%; ED50 paw edema formation [5]: 5 mg/kg; effect on 12-HHT formation [14]: almost completely blocked

Which “mPGES-1 inhibition compared with Hyp” value ([13]; 20 μM PGH2) does the source give for `CC(C)CCC[C@]1(C)[C@@H](CCC(C)C)C[C@@]2(CCC(C)C)C(=O)[C@]1(C(=O)C(C)C)C(=O)C(CCC(C)C)=C2O` [octahydro-hyperforin] here?
The value was “equally effective”.
